This note sets out measurements from PMC7586386, “Discovery of Covalent Inhibitors Targeting the Transcriptional Enhanced Associate Domain Central Pocket” (Journal of Medicinal Chemistry, 2020).

Test [1] addresses T1, hTEAD4 (acylated) with YAP (Homo sapiens, UniProt Q15561).
T1 construct: N-terminal His6-tagged hTEAD4^217–434 was subcloned; made in house; host or cells: Escherichia coli BL21-CodonPlus (DE3)-RIPL
The test is described as follows: FP-based competitive TEAD–YAP interaction assay (FITC-hYAP50–100). Format: binding. As to the method:
(§1) All the TEAD–YAP binding experiments were performed in phosphate-buffered saline (PBS) (pH 7.5).
(§2) To serially diluted solution of the tested compounds in 5 μL of PBS, freshly prepared 5 μL of protein solution was added and incubated at room temperature for 10 min followed by addition of 5 μL of FAM-YAP^50–100 solution. The assay plate was shaken at room temperature for 1 h before measuring the FP (Ex/Em: 485/535 nm). Final protein and FAM concentrations are as follows (FAM/protein): hTEAD4 (nonacylated): 2 nM/5 nM, hTEAD4 (acylated): 3 nM/15 nM, mTEAD4_Cys360Ser: 10 nM/50 nM, and mTEAD4_Cys360Ala: 10 nM/50 nM.

Test [2] addresses T2, mTEAD4 Cys360Ala with YAP (Mus musculus, UniProt Q62296, C360A).
T2 construct: N-terminal His6- and MBP-tagged mTEAD4^209–427 with Cys360Ala mutation; made in house; host or cells: E. coli BL21-CodonPlus (DE3)-RIPL
The test is described as above. It counts as binding. As for the experimental part:
as §1, §2

The target in test [3] is T3, mTEAD4 Cys360Ser with YAP (Mus musculus, UniProt Q62296, C360S).
T3 construct: His (N); made in house
The description is as above. Format: binding. As to the method:
as §1, §2

Test [4] addresses T4, hTEAD4 (nonacylated) (Homo sapiens, UniProt Q15561).
T4 construct: N-terminal His6-tagged hTEAD4^217–434 was subcloned; made in house; host or cells: Escherichia coli BL21-CodonPlus (DE3)-RIPL
The test is described as follows: Time-dependent inhibition, thiol conjugation assay. Format: binding. As to the method: (§3) To serially diluted solutions of the tested compounds in 5 μL of assay buffer [HEPES (25 mM) and NaCl (150 mM) pH 6.5], freshly prepared 5 μL of 0.45 μM protein solution was added and incubated at room temperature for 10 min, followed by addition of 5 μL of 0.45 μM CPM solution, giving a 15 μL final assay volume, 150 nM protein, and 150 nM CPM. The assay plate was shaken at room temperature for 1 h before measuring the fluorescence (Ex/Em: 380/470 nm). Compound 19 was used as an internal standard to determine 100% inhibition.
(§4) TDI of hTEAD4 (nonacylated) by compound 19 was monitored in FP (central pocket binding) and thiol conjugation assays at 5–7 different concentrations (0.15–40 μM) following 1, 2, 4, and 24 h incubation at 4 °C (mean ± SD; n = 2). By fitting the percent of inhibition versus preincubation time at different concentrations, kobs was calculated. Next, kobs was plotted against concentration and was further fitted to a nonlinear regression model to determine the kinetic parameters of covalent inhibition of hTEAD4, where plateau is showing kinact (min^–1) and t1/2 is Ki (μM).

Test [5] has as its target T4, hTEAD4 (nonacylated). Briefly: Time-dependent inhibition, FP (central pocket binding) assay. As for the experimental part:
To serially diluted solution of the tested compounds in 5 μL assay buffer [HEPES (25 mM) and NaCl (150 mM), pH 6.5 buffer], freshly prepared 5 μL of 0.15 μM protein solution was added and incubated at room temperature for 10 min followed by 5 μL of 30 nM FITC-palmitate solution, giving 15 μL final assay volume, 50 nM protein, and 10 nM tracer. The assay plate was shaken at room temperature for 1 h before measuring the FP (Ex/Em: 485/535 nm).
as §4

The next test relates to hTEAD1–4. The test is described as follows: Thiol conjugation assay, TEAD homologues (range over all four). Format: binding, human. As to the method: as §3
The next test concerns the target T5, hTEAD4 (acylated) (Homo sapiens, UniProt Q15561).
T5 construct: N-terminal His6-tagged hTEAD4^217–434 was subcloned; made in house; host or cells: Escherichia coli BL21-CodonPlus (DE3)-RIPL
The test is described as follows: Whole-protein ESI–MS of covalent modification. Format: binding. The conditions noted are these: hTEAD4 not treated with hydroxylamine. As for the experimental part:
(§5) The protein solution (1 μL 5 μM) was injected to UPLC-MS (ThermoScientific_UltiMate 3000 LC coupled to a Velos Pro MS) through a desalting column (MassPREP Online desalting, 2.1 × 10 mm). For reactions, 1 μM of the protein was incubated at room temperature for 1 h with 8 equiv of the compound in HEPES (25 mM) and NaCl (150 mM) pH 6.5 buffer. Then, the mixture was centrifuged before injecting 5 μL. The deconvolution of m/z values was performed using Promass Xcalibur software.

In test [6] the target is T4, hTEAD4 (nonacylated). The test is described as follows: Whole-protein ESI–MS of covalent modification. Format: binding. The conditions noted are these: 8 equiv of compound, 1 h, rt. As for the experimental part:
as §5

T4 sequence (Q15561 217-434): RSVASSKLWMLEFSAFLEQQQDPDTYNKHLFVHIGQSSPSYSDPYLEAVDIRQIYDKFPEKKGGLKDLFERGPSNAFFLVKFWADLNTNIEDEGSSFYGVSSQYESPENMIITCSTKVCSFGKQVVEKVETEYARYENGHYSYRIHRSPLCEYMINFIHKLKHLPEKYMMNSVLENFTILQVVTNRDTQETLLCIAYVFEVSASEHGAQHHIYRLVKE
T1 sequence (Q15561 217-434): as above
T5 sequence (Q15561 217-434): as above
T3 sequence (Q62296 210-427 C360S limits assumed): as the sequence (Q15561 217-434) above, with V3I, Q19R, G35S, A48T, D67E, E91D, S96A, S142L, C151S counted along it
T2 sequence (Q62296 209-427 C360A): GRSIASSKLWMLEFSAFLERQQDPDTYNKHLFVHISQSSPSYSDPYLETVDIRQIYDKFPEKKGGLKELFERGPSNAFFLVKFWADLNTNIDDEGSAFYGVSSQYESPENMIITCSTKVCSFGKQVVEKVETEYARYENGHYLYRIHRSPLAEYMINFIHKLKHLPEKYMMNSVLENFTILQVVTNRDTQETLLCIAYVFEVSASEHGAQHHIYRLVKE

Turning to `O=c1cc(CO)oc(C(Nc2ccccc2)c2ccccc2)c1O` (centres unmarked) [Compound 19, 3-Hydroxy-6-(hydroxymethyl)-2-(phenyl(phenylamino)methyl)-4H-pyran-4-one], the “inhibition of the interaction of YAP with TEAD” value in test [1], in test [2] and in test [3] was “did not inhibit” in each case. In addition, the kinact at hTEAD4 (nonacylated) [4] (supplementary CSV) is 0.000333 s⁻¹; on hTEAD4 (nonacylated) [5] (FP, read-out: kinact (converted)), 0.0015 s⁻¹; at hTEAD4 (nonacylated) [5] (supplementary CSV, read-out: Kinact Fluorescence Polarization (converted)), 0.00015 s⁻¹. Besides, the figures for the kinact/KI on hTEAD4 (nonacylated) [4] (thiol conjugation assay) and on hTEAD4 (nonacylated) [5] (FP assay) were 138 M⁻¹ s⁻¹ and 66.7 M⁻¹ s⁻¹, respectively. The molecule also registered an IC50 in the test on hTEAD1–4 of 2.6 to 6.9 µM. The “adduct formation with acylated protein (whole-protein ESI–MS)” value on hTEAD4 (acylated) is “did not result in the formation of an acylated hTEAD4-19 adduct”. Further, the “modification of the protein (whole-protein ESI–MS)” value at hTEAD4 (nonacylated) [6] is “modification of the protein (+230 Da) was observed”.
